Measurements taken from patent publication US20220340983A1, “SYSTEMS AND ASSAYS FOR IDENTIFYING PU.1 INHIBITORS” (Massachustts Institute of Technology, priority 2019, published 2022).

Assays:
PU.1 = molecular target: T1, PU.1 (Mus musculus, UniProt P17433); assay: Luciferase assay (luminescence) in BV2 PU.1-Luciferase reporter cells; format: cell-based; details: luminescence reduction in BV2 PU.1-Luciferase cells, concentration-response, Hill's equation
T1 construct: endogenous in cells; host or cells: BV2 PU.1-Luciferase (mouse microglial BV2 with a 5xLBB-luciferase reporter integrated at ROSA26)
Text: PU.1 belongs to a group of transcription factors that all bind to the middle 5′-GGAA-3′ sequence. The flanking A/T rich sequence is crucial for conferring PU.1 selective binding. The flanking sequence requires unique structural properties of PU.1 and can therefore be targeted by drugs acting as allosteric inhibitors that prevent PU.1 from binding to the LBB. In order to achieve robust PU.1 binding, five tandem copies of the LBBs (5×LBB) were inserted into the luciferase promoter of the pGL4.23 plasmid. The region containing the five LBBs (5×LBB) was then subcloned into the pROSA26-1 plasmid (together with a PGKneo bpA plasmid for Neomycin/G418 resistance) that allows stable integration in chromosome 6 of the immortalized mouse microglial BV2 cell line (FIG. 2B). The stable cell line was created by selection with G418.
The BV2 PU.1-Luciferase cells (referred to as “cells” from here onward) were plated into a 384-well plate, using an automatic dispenser, 2000 cells per well in 30 μL of media composed of RPMI (Sigma-Aldrich), 10% FBS, 1% PenStrep (50 mg/mL) and 1% G418 (50 mg/mL) was plated. A robotic arm was used to transfer compounds in a 384-well format using a pin array into the plate containing the cells (here, 33 nL was transferred from a drug library containing 10 mM concentration of drugs for a final concentration of 10 μM per well). For reproducibility, each pin array with 384 compounds was added to 4 plates of cells. […] Subsequently, automatic of 30 μL of BrightGlo (Promega) was dispensed into 2 of the 4 plates, in order to lyse the cells and drive the luminescence reaction whereafter the luminescence intensity was measured by a plate reader (Perkin Elmer EnVision). The two other plates were fixed by automatically dispensing 30 μL of 10% formaldehyde with 2μL Hoechst per 1 mL formaldehyde which were left at room temperature for one hour, followed by plate reading (Acumen (TTPLabTech)). A compound transfer and treatment would be repeated if reproducibility between the luminescence plates and/or the fixed Hoechst plates was lacking. The drugs were selected and ranked according to the criteria described in FIG. 13. Luminescence values used were corrected for crosstalk. Hoechst values were total fluorescence area per well. Determination of a positive hit considered both the reduction of luminescence as well as a possible confounding reduction in cell viability. The formula used was y=(value−meanvalue)/stddev. […] Compounds were excluded if cell viability was reduced >2 standard deviations from the mean, using the same formula. The positive hits were then validated in multiple steps in order to identify true PU.1 inhibitors.
The degree of luminescence reduction of the hits was plotted with significant effective area under the curve in order to obtain an IC50.

[1] = test system: PU.1 dependent gene expression; assay: RT-qPCR of mRNA levels in BV2 PU.1-Luciferase cells (validation round 3); format: cell-based, mouse; details: 2-day treatment
Procedure: The Asinex1 and ChemDiv6 libraries contain molecules with unknown biological properties, but with low toxicity, high stability, and a broad structural diversity used to generate structure-activity-relationships (SAR) of the PU.1 inhibitors. […] In order to obtain the SAR, three rounds of validation were performed. In round 1, false-positive, non-specific luciferase quencher molecules were excluded using the commercially available HEK293 CMV-Luciferase line that constitutively expresses luciferase under the CMV promoter. In round 2, weak (non-significant) hits were eliminated according to degree of PU.1 inhibition in the absence of cell death. In round 3, drugs were selected that reduce PU.1-dependent gene expression with RT-qPCR.

Row | IC50 (PU.1) [nM] | SMILES | mRNA levels Apoe [1] | mRNA levels IL1β [1] | mRNA levels Lucif. [1] | mRNA levels Spi1 [1] | mRNA levels Trem2 [1] | mRNA levels Tyrobp [1]
1 | 1480 | N#CC(=CNc1ccc2c(c1)OCCO2)c1nc2ccccc2[nH]1 [Compound A09] | 0.941 multiples of 1× | 0.644 multiples of 1× | 0.513 multiples of 1× | 0.931 multiples of 1× | 0.879 multiples of 1× | 0.821 multiples of 1×
2 | 477 | Cc1ccccc1NC(=O)C(C)Sc1nc2ccccc2c(=O)n1C (stereo not shown) [Compound D04] | 0.841 multiples of 1× | 0.866 multiples of 1× | 0.519 multiples of 1× | 0.865 multiples of 1× | 0.976 multiples of 1× | 1.071 multiples of 1×
3 | 25 | Cn1nc(CC(=O)Nc2ccc(N3CCN(C(=O)OC(C)(C)C)CC3)cc2)c2ccccc2c1=O [Compound D06] | 1.233 multiples of 1× | 0.590 multiples of 1× | 0.153 multiples of 1× | 1.030 multiples of 1× | 1.510 multiples of 1× | 1.374 multiples of 1×
4 | 38 | CCOc1ccc(S(=O)(=O)NCc2ccncc2)cc1C(C)C [Compound D09] | 0.390 multiples of 1× | 0.938 multiples of 1× | 0.360 multiples of 1× | 0.781 multiples of 1× | 0.437 multiples of 1× | 0.496 multiples of 1×
5 | 258 | COc1cccc2cc(C(=O)Nc3ccc(N4CCNCC4)cc3)c(=O)oc12 [Compound D10] | 1.251 multiples of 1× | 1.347 multiples of 1× | 0.622 multiples of 1× | 1.072 multiples of 1× | 1.342 multiples of 1× | 1.593 multiples of 1×

More lines, now with the values behind:

Row | SMILES | IC50 (PU.1) [nM] | mRNA levels Apoe [1] | mRNA levels IL1β [1] | mRNA levels Lucif. [1] | mRNA levels Spi1 [1] | mRNA levels Trem2 [1] | mRNA levels Tyrobp [1]
6 | CCCC(=O)Nc1nnc(SCc2cc(=O)c3ccc(C)cc3[nH]2)s1 [Compound 2E6] | 1620 | 1.170 multiples of 1× | 0.810 multiples of 1× | 0.379 multiples of 1× | 1.046 multiples of 1× | 1.262 multiples of 1× | 1.347 multiples of 1×
7 | Cc1ccc(C(=O)Nc2nnc(SCc3cc(=O)c4c(C)ccc(C)c4[nH]3)s2)cc1 [Compound 2E7] | 8050 | 1.076 multiples of 1× | 0.887 multiples of 1× | 0.623 multiples of 1× | 0.926 multiples of 1× | 0.854 multiples of 1× | 0.927 multiples of 1×
8 | Cc1ccc(C)c(N2CCN(C(=O)C3CCN(c4nc(-c5ccc(C(C)C)cc5)no4)CC3)CC2)c1 [Compound 2E10] | 1340 | 1.244 multiples of 1× | 1.082 multiples of 1× | 0.611 multiples of 1× | 1.133 multiples of 1× | 1.253 multiples of 1× | 1.158 multiples of 1×
9 | Cc1nc(-c2ccc(S(=O)(=O)Nc3ccc(C)c(N(C)C)c3)cc2)co1 [Compound 2F3] | 2290 | 1.011 multiples of 1× | 0.386 multiples of 1× | 0.496 multiples of 1× | 0.733 multiples of 1× | 0.790 multiples of 1× | 0.854 multiples of 1×
10 | COc1cc(NS(=O)(=O)c2ccc3c(c2)CCN3S(C)(=O)=O)cc(OC)c1 [Compound 2F5] | 3540 | 0.790 multiples of 1× | 0.767 multiples of 1× | 0.590 multiples of 1× | 0.783 multiples of 1× | 0.901 multiples of 1× | 0.985 multiples of 1×
11 | COc1ccc(NS(=O)(=O)c2ccc3c(c2)CCCN3C(=O)C2CCC2)cc1OC [Compound 2F7] | 1420 | 1.146 multiples of 1× | 0.460 multiples of 1× | 0.216 multiples of 1× | 0.936 multiples of 1× | 1.442 multiples of 1× | 1.498 multiples of 1×
12 | Cc1c(Cl)ccc2sc(N3CCN(C(=O)CCS(=O)(=O)c4ccc(F)cc4)CC3)nc12 [Compound 2F9] | 1330 | 0.928 multiples of 1× | 0.821 multiples of 1× | 0.655 multiples of 1× | 1.020 multiples of 1× | 0.890 multiples of 1× | 0.904 multiples of 1×
13 | Cc1cccc(Cn2cccc(C(=O)Nc3nc4ccccc4s3)c2=O)c1 [Compound 2F11] | 303 | 1.005 multiples of 1× | 1.086 multiples of 1× | 0.640 multiples of 1× | 0.943 multiples of 1× | 1.012 multiples of 1× | 1.002 multiples of 1×
14 | Cn1nccc1C(=O)NCc1ccc2c(c1)CCN2C(=O)c1ccc(F)cc1 [Compound 2G2] | 4800 | 0.957 multiples of 1× | 0.887 multiples of 1× | 0.294 multiples of 1× | 0.958 multiples of 1× | 1.071 multiples of 1× | 0.963 multiples of 1×
15 | CCCCN(c1ccccc1)c1ncnc2c1cnn2-c1ccc(Cl)cc1 [Compound 2G8] | 967 | 1.119 multiples of 1× | 1.362 multiples of 1× | 0.497 multiples of 1× | 1.179 multiples of 1× | 1.237 multiples of 1× | 1.469 multiples of 1×
16 | CSc1ccc(C=Cc2nc3ccccc3n2S(=O)(=O)c2ccc(F)c(C)c2)cc1 [Compound 2G10] | 507 | 0.899 multiples of 1× | 0.786 multiples of 1× | 0.531 multiples of 1× | 0.790 multiples of 1× | 0.993 multiples of 1× | 0.855 multiples of 1×
17 | CCOc1ccc(-c2nc(CSCC(=O)NCc3ccc(C)cc3)c(C)o2)cc1 [Compound 2H2] | 380 | 1.739 multiples of 1× | 0.706 multiples of 1× | 0.299 multiples of 1× | 1.251 multiples of 1× | 1.668 multiples of 1× | 1.952 multiples of 1×
18 | CCOc1ccc(-c2nc(CSCC(=O)NCc3ccc(Cl)cc3)c(C)o2)cc1 [Compound 2H3] | 734 | 1.111 multiples of 1× | 0.915 multiples of 1× | 0.722 multiples of 1× | 0.897 multiples of 1× | 0.986 multiples of 1× | 1.003 multiples of 1×
19 | Cc1ccc(-c2c(C)n3c4c(=O)n(C)c(=O)n(C)c4nc3n2CCO)cc1 [Compound 2H5] | 155 | 1.756 multiples of 1× | 0.185 multiples of 1× | 0.165 multiples of 1× | 1.316 multiples of 1× | 2.628 multiples of 1× | 2.422 multiples of 1×
